Source: patent US10383977B2, “Cardiovascular prostheses” (CorMatrix Cardiovascular, Inc., priority 2011, dated 2019)

System: CCR2
Assay: In vitro assay, TNF-α stimulated CCR2 expression in THP-1 cells (quantitative PCR)
Type: cell-based, human
Conditions: THP-1 cells treated with TNF-α
Excerpt: In the following study, the activity of cerivastatin and other statins, including simvastatin, lovastatin and atorvastatin, was similarly assessed using the human monocytic cell line THP-1. The THP-1 cells were similarly seeded by preparing a solution of THP-1 cells at 6×10^5 cells/ml and loading the solution of THP-1 cells onto a cell culture plate. The in vitro assay included six (6) treatment groups, including one (1) control group consisting of untreated THP-1 cells, one (1) positive control group consisting of THP-1 cells treated with tumor necrosis factor alpha (TNF-α) alone, four (4) treatment groups consisting of THP-1 cells treated with TNF-α and cerivastatin, TNF-α and simvastatin, TNF-α and lovastatin and TNF-α and atorvastatin. In this study, the THP-1 cells were treated with TNF-α to stimulate the production of CCR2. Each of the six (6) THP-1 cell samples were harvested and collected in a sealable vial and centrifuged to separate the liquid media from the THP-1 cells. The THP-1 cells were then collected and used for RNA extraction and quantitative PCR.

| SMILES | expression of CCR2 |
| --- | --- |
| CC[C@H](C)C(=O)O[C@H]1C[C@@H](C)C=C2C=C[C@H](C)[C@H](CC[C@@H]3C[C@@H](O)CC(=O)O3)[C@H]21 [lovastatin] | did not, however, restrict CCR2 expression at levels comparable to cerivastatin |
| CC(C)c1c(C(=O)Nc2ccccc2)c(-c2ccccc2)c(-c2ccc(F)cc2)n1CC[C@@H](O)C[C@@H](O)CC(=O)O [atorvastatin] | did not, however, restrict CCR2 expression at levels comparable to cerivastatin |
